Several values for one entry are separate records, joined by “and”; a condition that tells them apart may be missing. Equal entries are not always repeated.
How the values were obtained:
[1] = target: T1, Solute carrier family 22 member 1 (Rattus norvegicus, UniProt Q63089); assay: (§1) TP_TRANSPORTER: uptake in Xenopus laevis oocytes; assay type: functional, cell-based; settings: oocyte
T1 sequence (Q63089 whole entry): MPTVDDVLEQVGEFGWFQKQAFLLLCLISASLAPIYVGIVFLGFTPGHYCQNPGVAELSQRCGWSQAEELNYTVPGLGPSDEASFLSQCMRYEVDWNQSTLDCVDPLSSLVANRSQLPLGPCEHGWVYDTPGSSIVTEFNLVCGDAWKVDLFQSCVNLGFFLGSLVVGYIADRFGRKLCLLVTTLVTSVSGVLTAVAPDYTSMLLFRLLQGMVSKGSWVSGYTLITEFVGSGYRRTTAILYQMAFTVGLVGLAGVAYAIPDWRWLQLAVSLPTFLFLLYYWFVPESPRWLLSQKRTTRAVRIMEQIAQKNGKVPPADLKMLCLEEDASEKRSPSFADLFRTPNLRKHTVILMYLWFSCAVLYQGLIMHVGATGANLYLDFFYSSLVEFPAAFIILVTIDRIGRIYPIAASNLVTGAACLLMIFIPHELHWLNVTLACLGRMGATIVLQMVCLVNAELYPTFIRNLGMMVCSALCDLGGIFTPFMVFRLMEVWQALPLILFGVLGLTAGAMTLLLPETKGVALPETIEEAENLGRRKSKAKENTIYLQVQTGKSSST

[2] = target: T2, Solute carrier family 22 member 1 (Homo sapiens, UniProt O15245); assay: as §1; assay type: functional, cell-based; settings: oocyte
T2 sequence (O15245 whole entry): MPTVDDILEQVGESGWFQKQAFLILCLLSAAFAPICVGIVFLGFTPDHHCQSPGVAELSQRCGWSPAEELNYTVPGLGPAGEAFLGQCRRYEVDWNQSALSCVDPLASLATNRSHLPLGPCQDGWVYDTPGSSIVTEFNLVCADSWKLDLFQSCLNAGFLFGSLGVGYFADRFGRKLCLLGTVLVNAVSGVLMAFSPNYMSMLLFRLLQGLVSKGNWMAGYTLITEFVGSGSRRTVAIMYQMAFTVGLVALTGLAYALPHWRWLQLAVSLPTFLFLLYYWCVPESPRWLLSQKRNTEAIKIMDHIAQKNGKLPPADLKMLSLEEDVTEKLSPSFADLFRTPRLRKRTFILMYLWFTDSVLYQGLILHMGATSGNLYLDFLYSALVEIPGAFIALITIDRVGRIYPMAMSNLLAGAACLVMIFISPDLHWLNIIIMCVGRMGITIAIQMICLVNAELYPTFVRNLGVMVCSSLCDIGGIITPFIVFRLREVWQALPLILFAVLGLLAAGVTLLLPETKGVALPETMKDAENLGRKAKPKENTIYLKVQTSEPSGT

[3] = target: T1, Solute carrier family 22 member 1; assay: (§2) TP_TRANSPORTER: inhibition of TBuMA uptake in Xenopus laevis oocytes; assay type: functional, cell-based; settings: oocyte
[4] = target: T2, Solute carrier family 22 member 1; assay: as §2; assay type: functional, cell-based; settings: oocyte
[5] = target: T3, Solute carrier organic anion transporter family member 1A2 (Homo sapiens, UniProt P46721); assay: (§3) TP_TRANSPORTER: inhibition of Rocuronium uptake in Xenopus laevis oocytes; assay type: functional, cell-based; settings: oocyte
T3 sequence (P46721 whole entry): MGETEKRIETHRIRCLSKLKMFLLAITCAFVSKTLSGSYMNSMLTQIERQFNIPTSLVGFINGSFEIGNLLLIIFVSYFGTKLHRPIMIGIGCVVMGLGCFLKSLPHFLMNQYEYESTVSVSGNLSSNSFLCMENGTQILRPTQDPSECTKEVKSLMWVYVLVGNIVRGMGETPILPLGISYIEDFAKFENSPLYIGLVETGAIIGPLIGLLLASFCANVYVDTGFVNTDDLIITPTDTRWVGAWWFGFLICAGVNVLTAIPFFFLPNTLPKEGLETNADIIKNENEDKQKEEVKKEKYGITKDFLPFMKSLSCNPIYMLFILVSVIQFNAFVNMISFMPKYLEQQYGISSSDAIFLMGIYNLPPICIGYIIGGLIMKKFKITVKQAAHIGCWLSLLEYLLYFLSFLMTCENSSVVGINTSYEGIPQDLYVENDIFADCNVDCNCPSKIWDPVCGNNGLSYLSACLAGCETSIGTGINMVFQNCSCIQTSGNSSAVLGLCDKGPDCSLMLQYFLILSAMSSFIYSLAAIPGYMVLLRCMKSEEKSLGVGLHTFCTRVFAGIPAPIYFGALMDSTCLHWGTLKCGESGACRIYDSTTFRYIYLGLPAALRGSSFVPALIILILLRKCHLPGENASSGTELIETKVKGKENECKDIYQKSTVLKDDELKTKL

[6] = target: T1, Solute carrier family 22 member 1; assay: as §3; assay type: functional, cell-based; settings: oocyte
[7] = target: T4, Solute carrier organic anion transporter family member 1A4 (Rattus norvegicus, UniProt O35913); assay: as §3; assay type: functional, cell-based; settings: oocyte
T4 sequence (O35913 whole entry): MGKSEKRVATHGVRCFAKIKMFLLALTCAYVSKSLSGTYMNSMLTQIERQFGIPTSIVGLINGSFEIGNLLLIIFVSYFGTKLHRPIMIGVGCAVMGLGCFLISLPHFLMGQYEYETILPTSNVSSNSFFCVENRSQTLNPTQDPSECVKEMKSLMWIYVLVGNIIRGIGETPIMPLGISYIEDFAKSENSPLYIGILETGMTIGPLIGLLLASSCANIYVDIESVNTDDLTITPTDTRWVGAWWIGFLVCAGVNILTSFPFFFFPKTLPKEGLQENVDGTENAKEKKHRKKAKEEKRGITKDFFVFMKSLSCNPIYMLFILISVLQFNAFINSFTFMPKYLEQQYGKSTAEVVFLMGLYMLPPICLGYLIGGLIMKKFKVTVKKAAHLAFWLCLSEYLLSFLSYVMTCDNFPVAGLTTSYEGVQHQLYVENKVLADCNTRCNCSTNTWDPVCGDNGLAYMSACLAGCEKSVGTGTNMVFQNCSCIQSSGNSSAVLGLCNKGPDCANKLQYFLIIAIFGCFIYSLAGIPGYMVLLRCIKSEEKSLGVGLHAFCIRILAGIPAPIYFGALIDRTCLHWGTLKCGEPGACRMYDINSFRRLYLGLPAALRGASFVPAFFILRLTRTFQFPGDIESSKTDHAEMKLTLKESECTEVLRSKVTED

[8] = substrate: CCCC[N+](C)(CCCC)CCCC; assay: as §1; assay type: functional, cell-based, Oocyte
[9] = substrate: CC[N+](C)(CC)CCNC(=O)c1ccc(N=[N+]=[N-])cc1; assay: as §1; assay type: functional, cell-based, Oocyte
[10] = substrate: [H][C@@]12CC[N+](C)(C[C@]1([H])C=C)[C@@]([H])([C@@H](O)c1ccnc3ccc(OC)cc13)C2; assay: as §1; assay type: functional, cell-based, Oocyte
[11] = substrate: C=C[C@H]1C[N+]2(C)CC[C@H]1C[C@H]2[C@H](O)c1ccnc2ccc(OC)cc12; assay: as §1; assay type: functional, cell-based, Oocyte

## CCC1C[N+]2(CCCC3(C)N=N3)C3CC45c6ccccc6N(C)C4C2CC1C3C5O (stereo unspecified)
[1]
  Activity: substrate [+]
[2]
  Activity: substrate [+]

## CC1(CCC[N+]23CCC(CC2)CC3)N=N1
[1]
  Activity: substrate [+]
[2]
  Activity: substrate [+]

## C=C[C@H]1C[N@@]2CC[C@H]1C[C@@H]2[C@@H](O)c1ccnc2ccc(OC)cc12 [QUINIDINE]
[3]
  Activity: inhibitor [+]
[4]
  Activity: inhibitor [+]
[5]
  Activity: inhibitor [+]

## C=CC[N+]1([C@H]2C[C@H]3[C@@H]4CC[C@H]5C[C@H](O)[C@@H](N6CCOCC6)C[C@]5(C)[C@H]4CC[C@]3(C)[C@H]2OC(C)=O)CCCC1 [ROCURONIUM]
[4]
  Activity: inhibitor [+]
[6]
  Activity: inhibitor [+]

## CO[C@H]1C[C@H](O[C@H]2CC[C@]3(C=O)[C@H]4CC[C@]5(C)[C@@H](C6=CC(=O)OC6)CC[C@]5(O)[C@@H]4CC[C@]3(O)C2)O[C@H](C)[C@H]1O[C@@H]1O[C@H](CO[C@@H]2O[C@H](CO)[C@@H](O)[C@H](O)[C@H]2O)[C@@H](O)[C@H](O)[C@H]1O
[5]
  Activity: inhibitor [+]
[7]
  Activity: inhibitor [+]

## C[C@@H]1O[C@@H](O[C@H]2C[C@@H](O)[C@]3(CO)[C@H]4[C@H](O)C[C@]5(C)[C@@H](C6=CC(=O)OC6)CC[C@]5(O)[C@@H]4CC[C@]3(O)C2)[C@H](O)[C@H](O)[C@H]1O [OUABAIN]
[7]
  Activity: inhibitor [+]

## CC[N+](C)(CC)CCNC(=O)c1ccc(N=[N+]=[N-])cc1.[I-] [AZIDOPROCAINAMIDE METHOIODIDE]
[3]
  Activity: inhibitor [+]
[4]
  Activity: inhibitor [+]
[5]
  Activity: inhibitor [+]

## C=C[C@H]1C[N+]2(C)CC[C@H]1C[C@@H]2[C@@H](O)c1ccnc2ccc(OC)cc12
[3]
  Activity: inhibitor [+]
[4]
  Activity: inhibitor [+]
[5]
  Activity: inhibitor [+]

B1: Solute carrier family 22 member 1 (Rattus norvegicus) (protein)
chain: T1 sequence (Q63089 whole entry)
[8]
  Km: 34 µM
[9]
  Km: 54 µM
[10]
  Km: 7.4 µM
[11]
  Km: 17.3 µM and 17 µM

B2: Solute carrier family 22 member 1 (Homo sapiens) (protein)
chain: T2 sequence (O15245 whole entry)
[8]
  Km: 53 µM
[9]
  Km: 101 µM
[10]
  Km: 11.5 µM and 12 µM
[11]
  Km: 19.5 µM and 20 µM
